ChEMBL document CHEMBL5252657, “Artefenomel Regioisomer RLA-3107 Is a Promising Lead for the Discovery of Next-Generation Endoperoxide Antimalarials” (ACS Med Chem Lett, 2023)
Calls of active or inactive are those of the source. No cut-off for these calls is given here.

Columns and labels:
[1] = system: Plasmodium falciparum; test: Antiplasmodial activity against chloroquine-resistant ring stage Plasmodium falciparum W2 infected in human erythrocytes assessed as reduction in parasite growth incubated for 48 hrs by YOYO-1 dye based flow cytometric analysis; assay type: functional, organism-based; details: W2, Erythrocyte
[2] = Stability in human liver microsomes assessed as intrinsic clearance at 1 uM measured upto 60 mins by LC-MS/MS analysis; assay type: ADME, Microsome; details: read-out: CLH
[3] = system: Plasmodium berghei; test: Antiplasmodial activity against Plasmodium berghei infected in Swiss Webster mouse model assessed as reduction in parasitemia at 80 mg/kg, po administered as single dose and measured after 11 days by Giemsa staining based microscopic analysis; assay type: functional, organism-based; details: time 11.0 day
[4] = system: Plasmodium berghei; test: Antiplasmodial activity against Plasmodium berghei infected in Swiss Webster mouse model assessed as reduction in parasitemia at 80 mg/kg, po administered as single dose and measured after 30 days by Giemsa staining based microscopic analysis; assay type: functional, organism-based; details: time 30.0 day
[5] = system: Plasmodium berghei; test: Antiplasmodial activity against Plasmodium berghei infected in Swiss Webster mouse model assessed as reduction in parasitemia at 30 mg/kg, po administered as single dose and measured after 11 days by Giemsa staining based microscopic analysis; assay type: functional, organism-based; details: time 11.0 day
[6] = system: Plasmodium berghei; test: Antiplasmodial activity against Plasmodium berghei infected in Swiss Webster mouse model assessed as reduction in parasitemia at 30 mg/kg, po administered as single dose and measured after 30 days by Giemsa staining based microscopic analysis; assay type: functional, organism-based; details: time 30.0 day
[7] = system: Plasmodium berghei; test: Antiplasmodial activity against Plasmodium berghei infected in Swiss Webster mouse model assessed as reduction in parasitemia at 20 mg/kg, po administered as single dose and measured after 30 days by Giemsa staining based microscopic analysis; assay type: functional, organism-based; details: time 30.0 day
[8] = system: Plasmodium berghei; test: Antiplasmodial activity against Plasmodium berghei infected in Swiss Webster mouse model assessed as reduction in parasitemia at 10 mg/kg, po administered once daily for 4 days and measured after 30 days by Giemsa staining based microscopic analysis; assay type: functional, organism-based; details: time 30.0 day
[9] = system: Plasmodium berghei; test: Antiplasmodial activity against Plasmodium berghei infected in Swiss Webster mouse model assessed as reduction in parasitemia at 6 mg/kg, po administered once daily for 4 days and measured after 11 days by Giemsa staining based microscopic analysis; assay type: functional, organism-based; details: time 11.0 day
[10] = system: Plasmodium berghei; test: Antiplasmodial activity against Plasmodium berghei infected in Swiss Webster mouse model assessed as reduction in parasitemia at 6 mg/kg, po administered once daily for 4 days and measured after 30 days by Giemsa staining based microscopic analysis; assay type: functional, organism-based; details: time 30.0 day
[11] = system: Plasmodium berghei; test: Antiplasmodial activity against Plasmodium berghei infected in Swiss Webster mouse model assessed as reduction in parasitemia at 4 mg/kg, po administered once daily for 4 days and measured after 11 days by Giemsa staining based microscopic analysis; assay type: functional, organism-based; details: time 11.0 day
[12] = system: Plasmodium berghei; test: Antiplasmodial activity against Plasmodium berghei infected in Swiss Webster mouse model assessed as reduction in parasitemia at 4 mg/kg, po administered once daily for 4 days and measured after 30 days by Giemsa staining based microscopic analysis; assay type: functional, organism-based; details: time 30.0 day
[13] = system: Plasmodium berghei; test: Antiplasmodial activity against Plasmodium berghei infected in Swiss Webster mouse model assessed as reduction in parasitemia at 2 mg/kg, po administered once daily for 4 days and measured after 11 days by Giemsa staining based microscopic analysis; assay type: functional, organism-based; details: time 11.0 day
[14] = system: Plasmodium berghei; test: Antiplasmodial activity against Plasmodium berghei infected in Swiss Webster mouse model assessed as reduction in parasitemia at 2 mg/kg, po administered once daily for 4 days and measured after 30 days by Giemsa staining based microscopic analysis; assay type: functional, organism-based; details: time 30.0 day
[15] = Aqueous solubility of the compound in PBS at pH 7.4; assay type: physicochemical
[16] = system: Plasmodium berghei; test: Antiplasmodial activity against Plasmodium berghei infected in Swiss Webster mouse model assessed as reduction in parasitemia at 40 mg/kg, po administered as single dose and measured after 11 days by Giemsa staining based microscopic analysis; assay type: functional, organism-based; details: time 11.0 day
[17] = system: Plasmodium berghei; test: Antiplasmodial activity against Plasmodium berghei infected in Swiss Webster mouse model assessed as reduction in parasitemia at 40 mg/kg, po administered as single dose and measured after 30 days by Giemsa staining based microscopic analysis; assay type: functional, organism-based; details: time 30.0 day
[18] = system: Plasmodium berghei; test: Antiplasmodial activity against Plasmodium berghei infected in Swiss Webster mouse model assessed as reduction in parasitemia at 10 mg/kg, po administered once daily for 4 days and measured after 11 days by Giemsa staining based microscopic analysis; assay type: functional, organism-based; details: time 11.0 day

Row | Compound | EC50 [1] [nM] | microsomal CLint at 1 µM [2] [µL/min/mg] | Activity [3] | Activity [4] | Activity [5] | Activity [6] | Activity [7] | Activity [8] | Activity [9] | Activity [10] | Activity [11] | Activity [12] | Activity [13] | Activity [14] | solubility [15] [µM] | Activity [16] | Activity [17] | Activity [18]
1 | c1cc([C@H]2CCC[C@@]3(C2)OOC2(O3)C3CC4CC(C3)CC2C4)ccc1OCCN1CCOCC1 (stereo not given in full) | 24.1 | 21.3 | Active | Active | Active | inactive | inactive | inactive | inactive | inactive | inactive | inactive | inactive | inactive | – | – | – | –
2 | C[C@@H]1CC[C@H]2[C@@H](C)C(=O)O[C@@H]3O[C@@]4(C)CC[C@@H]1[C@]32OO4 [ARTEMISININ] | 17.3 | – | – | – | – | – | – | – | – | – | – | – | – | – | – | – | – | –
3 | O=C([O-])Cc1ccccc1Nc1c(Cl)cccc1Cl.[Na+] [DICLOFENAC SODIUM] | – | – | – | – | – | – | – | – | – | – | – | – | – | – | 199 | – | – | –
4 | c1cc([C@H]2CC[C@@]3(CC2)OOC2(O3)C3CC4CC(C3)CC2C4)ccc1OCCN1CCOCC1 (stereo not given in full) | 11.2 | – | Active | Active | Active | Active | Active | Active | Active | Active | Active | – | – | – | < 2.5 | Active | Active | Active
